Holding throughout (experiment): NCI anticancer screen, dose series, 48 h
Test [1] deals with SNB-19 CNS.
Test [2] concerns SR leukemia.
For test [3], the system named is OVCAR-3 ovarian.
Test [4] relates to OVCAR-5 ovarian.
For test [5], the system named is HCT-15 colon.
The subject of test [6] is SK-MEL-28 melanoma.
Test [7] relates to COLO 205 colon.
For test [8], the system named is KM12 colon.
The subject of test [9] is UACC-62 melanoma.
Test [10] has as its system K-562 leukemia.

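Interpolation was linear, between the two tested concentrations surrounding the appropriate level; five concentrations were tested over 48 hours in 96-well plates. The concentration for 50% growth inhibition is given as GI50. TGI denotes the concentration required for complete inhibition of growth.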

With `CC1C(=O)C(C)C(c2ccccc2)N(N=O)C1c1ccccc1` (stereo not given), the GI50 in test [1] is 312 µM; in [5], more than 1000 µM. The TGI is more than 830 µM in test [1]; more than 1000 µM in [2]; 685 µM in test [3]; more than 881 µM in test [4]; more than 1000 µM in test [5]; more than 834 µM in [6]. In addition, the TGI in [7] was more than 674 µM; in test [8], more than 684 µM; in test [9], more than 655 µM; in test [10] it was more than 1000 µM.

For the compound `NC(=O)N1N=C2c3ccccc3SC[C@H]2[C@@H]1c1ccccc1`, the TGI in [1] was more than 100 µM; in [2], more than 100 µM; in test [3] it was 35.1 µM; in test [4], 60.2 µM; in test [5] it was more than 100 µM; in test [6] it was 52.1 µM. Besides, the TGI is 43.4 µM in [7] and more than 100 µM in [10].

In the case of `C[C@@H]1CN(CC(=O)N2CC(C)(C)c3nc(CO)c(Cc4ccc(F)cc4)cc32)[C@@H](CN2CCOC[C@H]2C)CN1`, the GI50 in [1] was more than 100 µM; in test [2], 18.9 µM; in test [3], more than 100 µM; in test [4] it was more than 100 µM; in test [5] it was 31.4 µM; in test [6] it was 18.6 µM. Moreover, the figures for the GI50 in test [7], in [8] and in [9] were 21.3 µM, 46.2 µM and 23.6 µM, respectively. Further, the TGI in test [1] is more than 100 µM; in [2], 73.3 µM; in test [3], more than 100 µM; in test [4], more than 100 µM; in [5] it was more than 100 µM; in test [6], 37.5 µM. Further, the figures for the TGI in [7], in [8] and in [9] were 41.4 µM, more than 100 µM and 65.8 µM, respectively.

In the case of `CC(C)C1CC(O)O[C@@H]([C@@H](C)[C@H]2CC(=O)[C@@H]3[C@@H]4[C@@H](O)[C@H](O)[C@H]5[C@@H](O)[C@H](O)CC[C@]5(C)[C@H]4CC[C@]23C)C1` (stereo not given in full), the TGI in [1], in test [2], in test [3], in test [5], in [6] and in test [7] was more than 100 µM in each case. Also, the TGI in test [8], in test [9] and in test [10] was more than 100 µM throughout.

As to `CC/C=C\C/C=C\C/C=C\CCCCCCCC(=O)OCC`, the TGI in test [2], in [3], in test [4], in test [6], in [7] and in test [8] was more than 100 µM each time. Also, the TGI in test [9] and in test [10] was more than 100 µM throughout.

Regarding `C=C(C)C(=O)O[C@H]1[C@H]2[C@H](OC(=O)[C@H]2C)[C@H](O)[C@@H](C)[C@@H]2C=CC(=O)[C@]21C`, the TGI in test [1] amounted to 18.6 µM; in test [2], 5.39 µM; in [3], 18.4 µM; in [4] it was 54 µM; in test [5], 6.38 µM; in [6] it was 5.85 µM. Also, the TGI in test [7] is 9.97 µM; in test [8] it was 7.38 µM; in test [9], 3.84 µM.

For `CCC(CC)n1c(C)nc2c1C(=O)c1ccccc1C2=O`, the TGI in test [1] was more than 100 µM; in test [2] it was more than 100 µM; in [3], 75.7 µM; in test [5] it was more than 100 µM; in [6], more than 100 µM; in [7], more than 100 µM. In addition, the TGI was more than 100 µM in [8], 36.2 µM in [9] and more than 100 µM in [10].

Take `Cc1nc2sc(C(=O)Nc3ccccc3)c(N)c2cc1C(=O)/C=C/c1ccccc1`: the GI50 in test [1] is 1.89 µM; in test [2], 1.38 µM; in [3], 1.9 µM; in [4] it was 2.31 µM; in test [5] it was 1.57 µM; in test [7], 2.02 µM. The GI50 in test [8] was 1.73 µM; in [9], 1.64 µM; in test [10], 2.41 µM. In addition, the TGI in test [1] stood at 4.17 µM; in [2] it was 11.7 µM; in test [3] it was 4.14 µM; in test [4], 7.13 µM; in test [5], 3.63 µM; in test [7] it was 4.49 µM. Further, the TGI in [8] came out at 3.38 µM; in test [9], 3.45 µM; in test [10], 17 µM.

In the case of `COc1ccc2c(c1)OC(N(C(C)=O)C(C)=O)=C(C#N)C2c1ccc(F)cc1` (stereo not given), the GI50 in test [1] was 2.91 µM; in test [2], 0.653 µM; in test [3] it was 0.676 µM; in test [4], 7.65 µM; in test [5] it was 0.683 µM; in test [6], 9.97 µM. The GI50 was 2.2 µM in [7], 0.664 µM in test [8] and 0.632 µM in test [9]. The TGI in test [1] was more than 100 µM; in [2] it was more than 100 µM; in test [3] it was 7.5 µM; in test [4] it was more than 100 µM; in test [5], more than 100 µM; in [6], more than 100 µM. The TGI in test [7] was 7.26 µM; in test [8], more than 100 µM; in test [9] it was more than 100 µM.

On to `COc1cccc(C2c3cc4c(cc3OC(O)(CO)C2C(=O)O)OCO4)c1` (stereo not given) (tested in a mixture with another compound), for which the TGI is more than 100 µM in [2]; more than 100 µM in test [3]; more than 100 µM in test [4]; more than 100 µM in [5]; 79.8 µM in test [6]; more than 100 µM in test [7]. The TGI in test [8], in test [9] and in [10] was more than 100 µM each time.

For the compound `COc1ccc2c3c(c(=O)n(C)c2c1OC)C=CC(C)(C)O3`, the TGI is more than 100 µM in test [1]; 24.9 µM in test [2]; more than 100 µM in test [3]; more than 100 µM in test [4]; 27.9 µM in [5]; more than 100 µM in test [6]. For the same compound, the TGI in [7] was 40.2 µM; in test [8], 77 µM; in [9], more than 100 µM.

For the compound `O=c1cc(-c2ccccc2)c2cc3c(=O)ccoc3cc2o1`, the TGI in test [1], in test [2], in test [3], in test [5], in test [6] and in test [7] was more than 100 µM in each case. The TGI in test [9] and in test [10] was more than 100 µM in each case.
